Experimental data published in ChEMBL document CHEMBL1148616, “Synthesis and structure-activity relationships of novel poly(ADP-ribose) polymerase-1 inhibitors” (Bioorg Med Chem Lett, 2006).

Target: Poly [ADP-ribose] polymerase 1 (Homo sapiens, UniProt P09874)
Sequence (P09874 whole entry): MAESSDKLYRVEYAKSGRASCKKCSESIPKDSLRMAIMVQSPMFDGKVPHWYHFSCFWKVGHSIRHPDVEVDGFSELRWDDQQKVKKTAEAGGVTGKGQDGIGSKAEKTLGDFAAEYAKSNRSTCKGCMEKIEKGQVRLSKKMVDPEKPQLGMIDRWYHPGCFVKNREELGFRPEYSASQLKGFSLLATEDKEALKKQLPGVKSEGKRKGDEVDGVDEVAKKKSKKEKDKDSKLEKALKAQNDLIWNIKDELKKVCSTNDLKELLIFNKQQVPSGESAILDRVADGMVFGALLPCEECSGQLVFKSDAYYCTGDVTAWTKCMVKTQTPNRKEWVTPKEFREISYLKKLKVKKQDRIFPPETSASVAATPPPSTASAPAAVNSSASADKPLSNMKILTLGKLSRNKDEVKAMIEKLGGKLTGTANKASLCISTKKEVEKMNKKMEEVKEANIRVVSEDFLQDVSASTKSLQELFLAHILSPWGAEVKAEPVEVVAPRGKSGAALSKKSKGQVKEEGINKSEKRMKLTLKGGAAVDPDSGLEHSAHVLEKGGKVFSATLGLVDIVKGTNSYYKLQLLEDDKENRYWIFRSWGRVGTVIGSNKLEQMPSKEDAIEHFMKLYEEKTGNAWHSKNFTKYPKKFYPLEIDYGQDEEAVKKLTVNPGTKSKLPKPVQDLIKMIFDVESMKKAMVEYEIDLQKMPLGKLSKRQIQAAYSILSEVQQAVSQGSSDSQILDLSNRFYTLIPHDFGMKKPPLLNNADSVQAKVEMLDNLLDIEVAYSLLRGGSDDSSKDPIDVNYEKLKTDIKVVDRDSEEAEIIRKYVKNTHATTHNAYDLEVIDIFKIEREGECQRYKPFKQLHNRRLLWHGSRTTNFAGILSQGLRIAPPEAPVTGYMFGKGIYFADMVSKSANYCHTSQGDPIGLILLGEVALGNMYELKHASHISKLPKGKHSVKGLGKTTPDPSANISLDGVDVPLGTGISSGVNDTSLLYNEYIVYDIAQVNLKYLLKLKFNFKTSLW
Description: Inhibitory activity against human PARP1 expressed in PC12 cells

Structure (SMILES)	IC50
CCCc1c2c(c3c([nH]c4ccccc43)c1CC)C(=O)NC2=O	> 10 µM
O=C1NC(=O)c2c1c1c(c3sc4ccccc4c23)CCC1	> 10 µM
O=C1NC(=O)c2c1c1ccccc1c1[nH]c3ccccc3c21	> 10 µM
O=C1NC(=O)c2c1c1c(c3oc4ccccc4c23)CCC1	> 10 µM
Nc1ccc2c3c(cccc13)C(=O)NC2=O	0.026 µM
